Where two headings read alike, the source gives them in different places.
Columns and labels:
GLP-1R = GLP-1R (Homo sapiens, UniProt P43220); assay: HitHunter cAMP assay (GLP-1R); assay type: cell-based; conditions: cAMP; for Emax: read-out: (Emax) GLP-1R
Procedure, shortened: (§1)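 Duplicate 22-point, 2-fold agonist titrations applied to receptor-expressing suspension cells in IBMX-containing HBSS; 30 min RT stimulation. Read: luminescent cAMP immunocompetition after O/N dark incubation.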

GIP-R = molecular target: T1, GIP-R (Homo sapiens, UniProt P48546); assay: HitHunter cAMP assay (GIP-R); assay type: cell-based; conditions: cAMP; for Emax: read-out: (Emax) GIP-R
T1 sequence (P48546 22-466): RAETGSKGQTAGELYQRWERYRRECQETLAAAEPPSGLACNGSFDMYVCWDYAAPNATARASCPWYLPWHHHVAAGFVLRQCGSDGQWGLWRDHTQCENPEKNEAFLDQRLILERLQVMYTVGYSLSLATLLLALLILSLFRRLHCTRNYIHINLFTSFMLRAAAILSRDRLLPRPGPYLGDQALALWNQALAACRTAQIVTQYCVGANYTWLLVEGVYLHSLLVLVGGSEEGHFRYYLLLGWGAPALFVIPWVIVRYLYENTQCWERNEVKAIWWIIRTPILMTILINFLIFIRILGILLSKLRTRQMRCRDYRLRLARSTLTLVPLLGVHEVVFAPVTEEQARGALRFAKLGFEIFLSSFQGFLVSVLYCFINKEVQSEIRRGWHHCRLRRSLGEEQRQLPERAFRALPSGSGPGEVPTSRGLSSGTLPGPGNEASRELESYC
Procedure, shortened: as §1

[1] = Table 3, read-out: EC50 GLP-1R/nM
[2] = Table 3A, read-out: EC50 GLP-1R/nM
[3] = Table 3, read-out: EC50 GIP-R/nM
[4] = Table 3A, read-out: EC50 GIP-R/nM

Sequence of GLP-1R (P43220 24-463): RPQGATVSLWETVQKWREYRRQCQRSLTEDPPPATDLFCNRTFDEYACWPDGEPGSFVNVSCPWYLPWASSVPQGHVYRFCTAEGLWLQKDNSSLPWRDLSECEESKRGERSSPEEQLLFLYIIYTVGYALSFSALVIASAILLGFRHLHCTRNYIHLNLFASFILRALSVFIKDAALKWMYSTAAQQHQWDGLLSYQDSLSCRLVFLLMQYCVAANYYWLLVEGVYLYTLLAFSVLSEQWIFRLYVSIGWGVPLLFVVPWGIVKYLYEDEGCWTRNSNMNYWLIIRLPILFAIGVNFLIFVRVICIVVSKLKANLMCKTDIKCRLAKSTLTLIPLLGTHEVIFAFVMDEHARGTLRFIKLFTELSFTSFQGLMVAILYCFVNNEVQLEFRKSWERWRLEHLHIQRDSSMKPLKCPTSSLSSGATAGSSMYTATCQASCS

`CCCCCCCCCCCCCCCC(=O)N[C@@H](CCC(=O)NCCCC[C@H](NC(=O)[C@H](CO)NC(=O)[C@@H]1CCCN1C(=O)[C@@H]1CCCN1C(=O)[C@@H]1CCCN1C(=O)[C@H](C)NC(=O)CNC(=O)[C@H](CO)NC(=O)[C@H](CO)NC(=O)[C@@H]1CCCN1C(=O)CNC(=O)CNC(=O)[C@H](C)NC(=O)[C@H](CC(C)C)NC(=O)[C@H](CC(C)C)NC(=O)[C@H](Cc1c[nH]c2ccccc12)NC(=O)[C@H](CC(N)=O)NC(=O)[C@@H](NC(=O)[C@H](Cc1ccccc1)NC(=O)[C@H](CCC(=O)O)NC(=O)C(C)(C)NC(=O)[C@H](C)NC(=O)[C@H](C)NC(=O)[C@H](CCC(N)=O)NC(=O)[C@H](CCCCN)NC(=O)[C@H](CC(=O)O)NC(=O)[C@H](CC(C)C)NC(=O)[C@H](Cc1ccc(O)cc1)NC(=O)[C@@H](NC(=O)[C@H](CO)NC(=O)[C@H](Cc1ccc(O)cc1)NC(=O)[C@H](CC(=O)O)NC(=O)[C@H](CO)NC(=O)[C@@H](NC(=O)[C@H](Cc1ccccc1)NC(=O)[C@@H](NC(=O)CNC(=O)[C@H](CCC(=O)O)NC(=O)CSCC(=O)NCCN1C(=O)CC(C)(C)CC1=O)[C@@H](C)O)[C@@H](C)O)[C@@H](C)CC)C(C)C)C(N)=O)C(=O)O` [Compound 82] gave an EC50 (GLP-1R; EC50 GLP-1R/nM, Table 3) of 1 to 10 nM, an EC50 (GLP-1R; EC50 GLP-1R/nM, Table 3A) of 1 to 10 nM and an Emax (GLP-1R; Table 3) of 95%. It also gave an Emax (GLP-1R; Table 3A) of 95%, an EC50 (GIP-R; EC50 GIP-R/nM, Table 3) of 1 to 10 nM and an EC50 (GIP-R; EC50 GIP-R/nM, Table 3A) of 1 to 10 nM. For the same molecule, the Emax (GIP-R; Table 3) was 82% and the Emax (GIP-R; Table 3A) was 82%.

Molecule `CCCCCCCCCCCCCCCC(=O)N[C@@H](CCC(=O)NCCCC[C@H](NC(=O)[C@H](CO)NC(=O)[C@@H]1CCCN1C(=O)[C@@H]1CCCN1C(=O)[C@@H]1CCCN1C(=O)[C@H](C)NC(=O)CNC(=O)[C@H](CO)NC(=O)[C@H](CO)NC(=O)[C@@H]1CCCN1C(=O)CNC(=O)CNC(=O)[C@H](C)NC(=O)[C@H](CC(C)C)NC(=O)[C@H](CC(C)C)NC(=O)[C@H](Cc1c[nH]c2ccccc12)NC(=O)[C@H](CC(N)=O)NC(=O)[C@@H](NC(=O)[C@H](Cc1ccccc1)NC(=O)[C@H](CCC(=O)O)NC(=O)C(C)(C)NC(=O)[C@H](C)NC(=O)[C@H](C)NC(=O)[C@H](CCC(N)=O)NC(=O)[C@H](CCCCN)NC(=O)[C@H](CC(=O)O)NC(=O)[C@H](CC(C)C)NC(=O)[C@H](Cc1ccc(O)cc1)NC(=O)[C@@H](NC(=O)[C@H](CO)NC(=O)[C@H](Cc1ccc(O)cc1)NC(=O)[C@H](CC(=O)O)NC(=O)[C@H](CO)NC(=O)[C@@H](NC(=O)[C@H](Cc1ccccc1)NC(=O)[C@@H](NC(=O)CNC(=O)[C@H](CCC(=O)O)NC(=O)CSCC(=O)NCCN1C(=O)C[C@H](CC)C1=O)[C@@H](C)O)[C@@H](C)O)[C@@H](C)CC)C(C)C)C(N)=O)C(=O)O` (single isomer, unassigned) [Compound 62] has an Emax (GLP-1R; Table 3) of 101%, an Emax (GLP-1R; Table 3A) of 101% and an Emax (GIP-R; Table 3) of 48%. The Emax (GIP-R; Table 3A) was 48%.

In the case of `CCCCCCCCCCCCCCCC(=O)N[C@@H](CCC(=O)NCCCC[C@H](NC(=O)[C@H](CO)NC(=O)[C@@H]1CCCN1C(=O)[C@@H]1CCCN1C(=O)[C@@H]1CCCN1C(=O)[C@H](C)NC(=O)CNC(=O)[C@H](CO)NC(=O)[C@H](CO)NC(=O)[C@@H]1CCCN1C(=O)CNC(=O)CNC(=O)[C@H](C)NC(=O)[C@H](CC(C)C)NC(=O)[C@H](CC(C)C)NC(=O)[C@H](Cc1c[nH]c2ccccc12)NC(=O)[C@H](CC(N)=O)NC(=O)[C@@H](NC(=O)[C@H](Cc1ccccc1)NC(=O)[C@H](CCC(=O)O)NC(=O)C(C)(C)NC(=O)[C@H](C)NC(=O)[C@H](C)NC(=O)[C@H](CCC(N)=O)NC(=O)[C@H](CCCCN)NC(=O)[C@H](CC(=O)O)NC(=O)[C@H](CC(C)C)NC(=O)[C@H](Cc1ccc(O)cc1)NC(=O)[C@@H](NC(=O)[C@H](CO)NC(=O)[C@H](Cc1ccc(O)cc1)NC(=O)[C@H](CC(=O)O)NC(=O)[C@H](CO)NC(=O)[C@@H](NC(=O)[C@H](Cc1ccccc1)NC(=O)[C@@H](NC(=O)CNC(=O)[C@H](CCC(=O)O)NC(=O)CSCC(=O)NCCN1C(=O)[C@@H](C)[C@H](C)C1=O)[C@@H](C)O)[C@@H](C)O)[C@@H](C)CC)C(C)C)C(N)=O)C(=O)O` (single isomer, unassigned) [Compound 63], the Emax (GLP-1R; Table 3) is reported as 91%, the Emax (GLP-1R; Table 3A) is reported as 91% and the Emax (GIP-R; Table 3) is reported as 24%. For the same molecule, the Emax (GIP-R; Table 3A) was 24%.

Work on `CC[C@H](C)[C@H](NC(=O)[C@H](CO)NC(=O)[C@H](Cc1ccc(O)cc1)NC(=O)[C@H](CC(=O)O)NC(=O)[C@H](CO)NC(=O)[C@@H](NC(=O)[C@H](Cc1ccccc1)NC(=O)[C@@H](NC(=O)CNC(=O)[C@H](CCC(=O)O)NC(=O)CCCCCCCN1C(=O)CSC1=O)[C@@H](C)O)[C@@H](C)O)C(=O)N[C@@H](Cc1ccc(O)cc1)C(=O)N[C@@H](CC(C)C)C(=O)N[C@@H](CC(=O)O)C(=O)N[C@@H](CCCCN)C(=O)N[C@@H](CCC(N)=O)C(=O)N[C@@H](C)C(=O)N[C@@H](C)C(=O)NC(C)(C)C(=O)N[C@@H](CCC(=O)O)C(=O)N[C@@H](Cc1ccccc1)C(=O)N[C@H](C(=O)N[C@@H](CC(N)=O)C(=O)N[C@@H](Cc1c[nH]c2ccccc12)C(=O)N[C@@H](CC(C)C)C(=O)N[C@@H](CC(C)C)C(=O)N[C@@H](C)C(=O)NCC(=O)NCC(=O)N1CCC[C@H]1C(=O)N[C@@H](CO)C(=O)N[C@@H](CO)C(=O)NCC(=O)N[C@@H](C)C(=O)N1CCC[C@H]1C(=O)N1CCC[C@H]1C(=O)N1CCC[C@H]1C(=O)N[C@@H](CO)C(=O)N[C@@H](CCCCN)C(N)=O)C(C)C` [Compound 175] yielded an EC50 (GLP-1R; EC50 GLP-1R/nM, Table 3) of 10 to 100 nM, an EC50 (GLP-1R; EC50 GLP-1R/nM, Table 3A) of 10 to 100 nM and an Emax (GLP-1R; Table 3) of 87 to 94%. For the same molecule, the Emax (GLP-1R; Table 3A) was 87 to 94%, the EC50 (GIP-R; EC50 GIP-R/nM, Table 3) was 10 to 100 nM and the EC50 (GIP-R; EC50 GIP-R/nM, Table 3A) was 10 to 100 nM. It also gave an Emax (GIP-R; Table 3) of 38% and an Emax (GIP-R; Table 3A) of 38%.

With `CCCCCCCCCCCCCCCC(=O)N[C@@H](CCC(=O)NCCCC[C@H](NC(=O)[C@H](CO)NC(=O)[C@@H]1CCCN1C(=O)[C@@H]1CCCN1C(=O)[C@@H]1CCCN1C(=O)[C@H](C)NC(=O)CNC(=O)[C@H](CO)NC(=O)[C@H](CO)NC(=O)[C@@H]1CCCN1C(=O)CNC(=O)CNC(=O)[C@H](C)NC(=O)[C@H](CC(C)C)NC(=O)[C@H](CC(C)C)NC(=O)[C@H](Cc1c[nH]c2ccccc12)NC(=O)[C@H](CC(N)=O)NC(=O)[C@@H](NC(=O)[C@H](Cc1ccccc1)NC(=O)[C@H](CCC(=O)O)NC(=O)C(C)(C)NC(=O)[C@H](C)NC(=O)[C@H](C)NC(=O)[C@H](CCC(N)=O)NC(=O)[C@H](CCCCN)NC(=O)[C@H](CC(=O)O)NC(=O)[C@H](CC(C)C)NC(=O)[C@H](Cc1ccc(O)cc1)NC(=O)[C@@H](NC(=O)[C@H](CO)NC(=O)[C@H](Cc1ccc(O)cc1)NC(=O)[C@H](CC(=O)O)NC(=O)[C@H](CO)NC(=O)[C@@H](NC(=O)[C@H](Cc1ccccc1)NC(=O)[C@@H](NC(=O)CNC(=O)[C@H](CCC(=O)O)NC(=O)CCCNC(=O)CCN1C(=O)CSC1=O)[C@@H](C)O)[C@@H](C)O)[C@@H](C)CC)C(C)C)C(N)=O)C(=O)O` [Compound 51] the Emax (GLP-1R; Table 3) was 98%, the EC50 (GLP-1R; [1]) was 0.1 to 1 nM and the Emax (GLP-1R; Table 3A) was 98%. The EC50 (GLP-1R; [2]) was 0.1 to 1 nM, the Emax (GIP-R; Table 3) was 65% and the EC50 (GIP-R; [3]) was 1 to 10 nM. For the same molecule, the Emax (GIP-R; Table 3A) was 65% and the EC50 (GIP-R; [4]) was 1 to 10 nM.

`CCCCCCCCCCCCCCCC(=O)N[C@@H](CCC(=O)NCCCC[C@H](NC(=O)[C@H](CO)NC(=O)[C@@H]1CCCN1C(=O)[C@@H]1CCCN1C(=O)[C@@H]1CCCN1C(=O)[C@H](C)NC(=O)CNC(=O)[C@H](CO)NC(=O)[C@H](CO)NC(=O)[C@@H]1CCCN1C(=O)CNC(=O)CNC(=O)[C@H](C)NC(=O)[C@H](CC(C)C)NC(=O)[C@H](CC(C)C)NC(=O)[C@H](Cc1c[nH]c2ccccc12)NC(=O)[C@H](CC(N)=O)NC(=O)[C@@H](NC(=O)[C@H](Cc1ccccc1)NC(=O)[C@H](CCC(=O)O)NC(=O)C(C)(C)NC(=O)[C@H](C)NC(=O)[C@H](C)NC(=O)[C@H](CCC(N)=O)NC(=O)[C@H](CCCCN)NC(=O)[C@H](CC(=O)O)NC(=O)[C@H](CC(C)C)NC(=O)[C@H](Cc1ccc(O)cc1)NC(=O)[C@@H](NC(=O)[C@H](CO)NC(=O)[C@H](Cc1ccc(O)cc1)NC(=O)[C@H](CC(=O)O)NC(=O)[C@H](CO)NC(=O)[C@@H](NC(=O)[C@H](Cc1ccccc1)NC(=O)[C@@H](NC(=O)CNC(=O)[C@H](CCC(=O)O)NC(=O)CSCC(=O)NCCN1C(=O)CCN1C)[C@@H](C)O)[C@@H](C)O)[C@@H](C)CC)C(C)C)C(N)=O)C(=O)O` [Compound 55] showed an Emax (GLP-1R; Table 3) of 104%, an EC50 (GLP-1R; [1]) of 0.1 to 1 nM and an Emax (GLP-1R; Table 3A) of 104%. For the same molecule, the EC50 (GLP-1R; [2]) was 0.1 to 1 nM, the Emax (GIP-R; Table 3) was 47% and the EC50 (GIP-R; [3]) was 1 to 10 nM. For the same molecule, the Emax (GIP-R; Table 3A) was 47% and the EC50 (GIP-R; [4]) was 1 to 10 nM.

— patent publication US20260176320A1, “MODULATORS OF G-PROTEIN COUPLED RECEPTORS” (priority 2018, published 2026)
